Source: patent US20120142685A1, “ORGANIC COMPOUNDS” (priority 2007, published 2012)

Molecular target: T1, protein kinase D1 (PKD1) (Homo sapiens, UniProt Q15139)
T1 construct: This assay is performed with full length wild-type enzyme that is expressed and purified from Sf9 insect cells; made in house; host or cells: Sf9 insect cells
T1 sequence (Q15139 1-912): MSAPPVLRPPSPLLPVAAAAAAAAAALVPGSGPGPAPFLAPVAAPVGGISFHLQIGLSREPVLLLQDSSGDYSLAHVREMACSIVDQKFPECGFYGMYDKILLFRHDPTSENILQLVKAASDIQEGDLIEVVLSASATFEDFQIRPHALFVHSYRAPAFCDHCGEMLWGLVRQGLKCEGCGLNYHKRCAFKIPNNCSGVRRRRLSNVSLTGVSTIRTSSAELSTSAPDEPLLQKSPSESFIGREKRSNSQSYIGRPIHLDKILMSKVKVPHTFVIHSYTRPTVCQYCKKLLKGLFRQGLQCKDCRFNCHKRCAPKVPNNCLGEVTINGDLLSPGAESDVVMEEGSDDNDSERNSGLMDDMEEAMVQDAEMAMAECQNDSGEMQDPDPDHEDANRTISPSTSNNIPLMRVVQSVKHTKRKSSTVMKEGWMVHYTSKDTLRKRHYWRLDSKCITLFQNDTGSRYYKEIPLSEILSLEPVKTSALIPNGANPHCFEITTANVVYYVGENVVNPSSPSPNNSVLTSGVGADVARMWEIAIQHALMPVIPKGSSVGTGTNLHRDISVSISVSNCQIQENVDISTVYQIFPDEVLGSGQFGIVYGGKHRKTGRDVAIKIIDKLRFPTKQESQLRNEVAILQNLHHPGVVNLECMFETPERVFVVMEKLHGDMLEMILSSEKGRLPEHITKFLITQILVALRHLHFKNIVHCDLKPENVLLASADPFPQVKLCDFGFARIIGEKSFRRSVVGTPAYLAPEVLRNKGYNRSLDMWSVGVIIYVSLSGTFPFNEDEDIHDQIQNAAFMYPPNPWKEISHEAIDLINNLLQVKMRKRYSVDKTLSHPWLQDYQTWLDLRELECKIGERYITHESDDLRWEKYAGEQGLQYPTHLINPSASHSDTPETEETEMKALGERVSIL
Experiment: PKD1 TR-FRET (LANCE) kinase assay
Format: biochemical
Conditions: full length wild-type enzyme, 20 μM ATP; read-out: Inhibitory Activity PKD1
Text: The assay to measure protein kinase D1 (PKD1) activity is a time-resolved fluorescence resonance transfer (TR-FRET) assay using PerkinElmer's LANCE™ technology. In this case, a biotinylated syntide-2 peptide is used as the substrate in this reaction. Phosphorylation of the syntide-2 substrate is detected by a specific antibody that recognizes the phosphorylated peptide. A second fluorophore, APC, is conjugated to streptavidin that binds the biotinylated syntide-2 peptide. For detection, the europium fluorophore can be excited by 340 nM light which then emits at 615 nM. Therefore, when the europium labeled secondary antibody binds on the phosphorylated peptide, it is brought into close contact with the APC and excites this fluorophore. The APC emission is at 665 nm and the 665 nM:615 nM ratio is a readout of PKD1 activity.
This assay is performed with full length wild-type enzyme that is expressed and purified from Sf9 insect cells. The reaction buffer consists of 35 mM Tris-HCl pH7.5, 5 mM MgCl2, 0.02% Tween-20, 20 μM ATP, 1 mM DTT and 0.2 μg/mL PKD1 enzyme. The enzyme reaction is initiated by the addition of 2 μM syntide-2 peptide substrate and the reaction carried out for 50 minutes at room temperature. The reaction is stopped by a stop/detection buffer consisting of 50 mM EDTA, 0.18 mg/mL rabbit polyclonal anti-phospho syntide-2 antibody, 0.5 nM europium labeled anti-rabbit IgG and 10 nM streptavidin conjugated APC. After a one hour incubation with the stop/detection buffer, the reaction is read on an Envision 2100 Reader using a LANCE™ Eu/APC dual protocol. As described above, a 665 nM:615 nM ratio is determined to measure substrate phosphorylation and enzyme activity. Compounds are typically tested in an 11 point dose response fashion in triplicate for each concentration used. IC50 values are calculated using an Activity Base (IDBS) software program.

| SMILES | IC50 [µM] |
| --- | --- |
| CC(C)Nc1cc(-c2cc3cnccc3c(NCCO)n2)ccn1 [Example 6, 2-[3-(2-Isopropylaminopyridin-4-yl)-[2,6]naphthyridin-1-ylamino]ethanol] | 0.156 |
| c1cc2c(NC3CCNC3)nc(-c3ccnc(NC4CCCCC4)c3)cc2cn1 (stereo not drawn) [Example 14, [3-(2-Cyclohexylaminopyridin-4-yl)-[2,6]naphthyridin-1-yl]pyrrolidin-3-ylamine] | 0.001 |
| CN(C)CC1CCN(c2nc(-c3ccnc(NC4CCCCC4)c3)cc3cnccc23)CC1 [Example 12, Cyclohexyl-{4-[1-(4-dimethylaminomethylpiperidin-1-yl)-[2,6]naphthyridin-3-yl]pyridin-2-yl}amine] | 0.207 |
| CN1CCN(c2nc(-c3ccnc(NC4CCCCC4)c3)cc3cnccc23)CC1 [Example 13, Cyclohexyl-{4-[1-(4-methylpiperazin-1-yl)-[2,6]naphthyridin-3-yl]pyridin-2-yl}amine] | 0.002 |
| c1cc2c(NC3CCCNC3)nc(-c3ccnc(NC4CCCCC4)c3)cc2cn1 (stereo not drawn) [Example 15, [3-(2-Cyclohexylaminopyridin-4-yl)-[2,6]naphthyridin-1-yl]piperidin-3-ylamine] | 0.014 |
| Cn1ccc(Nc2cc(-c3cc4cnccc4c(N4CCC(C(N)=O)CC4)n3)ccn2)n1 [Example 19, 1-{3-[2-(1-Methyl-1H-pyrazol-3-ylamino)pyridin-4-yl]-[2,6]naphthyridin-1-yl}piperidine-4-carboxylic acid amide] | 0.0004 |
| O=C(NC1CC1)C1CCN(c2nc(-c3ccnc(NC4CCOCC4)c3)cc3cnccc23)CC1 [Example 17, 1-{3-[2-(Tetrahydropyran-4-ylamino)pyridin-4-yl]-[2,6]naphthyridin-1-yl}piperidine-4-carboxylic acid cyclopropylamide] | 0.002 |
| c1ccc(Nc2cc(-c3cc4cnccc4c(N4CCNCC4)n3)ccn2)cc1 [Example 4, Phenyl-[4-(1-piperazin-1-yl-[2,6]naphthyridin-3-yl)pyridin-2-yl]amine] | 0.011 |
| CCNC(=O)N1CCN(c2nc(-c3ccnc(Nc4ccn(C)n4)c3)cc3cnccc23)CC1 [Example 18, 4-{3-[2-(1-Methyl-1H-pyrazol-3-ylamino)pyridin-4-yl]-[2,6]naphthyridin-1-yl}piperazine-1-carboxylic acid ethylamide] | 0.02 |
| OCCNc1nc(-c2ccnc(NC3CCCCC3)c2)cc2cnccc12 [Example 5, 2-[3-(2-Cyclohexylaminopyridin-4-yl)-[2,6]naphthyridin-1-ylamino]ethanol] | 0.382 |
| NC(=O)C1CCN(c2nc(-c3ccnc(NC4CCCCC4)c3)cc3cnccc23)CC1 [Example 10, 1-[3-(2-Cyclohexylaminopyridin-4-yl)-[2,6]naphthyridin-1-yl]piperidine-4-carboxylic acid amide] | 0.083 |
| CN(C)CCNc1nc(-c2ccnc(Nc3ccccc3)c2)cc2cnccc12 [Example 9, N,N-Dimethyl-N′-[3-(2-phenylaminopyridin-4-yl)-[2,6]naphthyridin-1-yl]-ethane-1,2-diamine] | 0.041 |

Continued, values first:

| IC50 [µM] | SMILES |
| --- | --- |
| 0.055 | COc1cccc(Nc2cc(-c3cc4cnccc4c(NCCO)n3)ccn2)c1 [Example 7] |
| 0.055 | CN(C)CCNc1nc(-c2ccnc(NC3CCCCC3)c2)cc2cnccc12 [Example 8, N-[3-(2-Cyclohexylaminopyridin-4-yl)-[2,6]naphthyridin-1-yl]-N′,N′-dimethylethane-1,2-diamine] |
| 0.0006 | c1cc2c(N3CCNCC3)nc(-c3ccnc(NC4CCCCC4)c3)cc2cn1 [Example 3, Cyclohexyl-[4-(1-piperazin-1-yl-[2,6]naphthyridin-3-yl)pyridin-2-yl]amine] |
| 0.014 | COCCNc1cc(-c2cc3cnccc3c(N3CCNCC3)n2)ccn1 [Example 21, (2-Methoxyethyl)-[4-(1-piperazin-1-yl-[2,6]naphthyridin-3-yl)-pyridin-2-yl]amine] |
| 0.833 | CNc1cc(-c2cc3cnccc3c(NC)n2)ccn1 [Example 2, 1-Methylamino-3-(2-methylaminopyridin-4-yl)-[2,6]-naphthyridine] |
| 0.002 | O=C(NCCO)C1CCN(c2nc(-c3ccnc(NC4CCOCC4)c3)cc3cnccc23)CC1 [Example 16, 1-{3-[2-(Tetrahydropyran-4-ylamino)pyridin-4-yl]-[2,6]naphthyridin-1-yl}piperidine-4-carboxylic acid (2-hydroxyethyl)amide] |
| 0.377 | CNc1cc(-c2cc3cnccc3c(NCCCO)n2)ccn1 [Example 1] |
| 0.017 | Cn1ccc(Nc2cc(-c3cc4cnccc4c(N4CCC5(CCNC5=O)CC4)n3)ccn2)n1 [Example 20, 8-{3-[2-(1-Methyl-1H-pyrazol-3-ylamino)pyridin-4-yl]-[2,6]naphthyridin-1-yl}-2,8-diaza-spiro[4.5]decan-1-one] |
| 0.186 | CC(=O)N1CCN(c2nc(-c3ccnc(NC4CCCCC4)c3)cc3cnccc23)CC1 [Example 11, 1-{4-[3-(2-Cyclohexylaminopyridin-4-yl)-[2,6]naphthyridin-1-yl]piperazin-1-yl}ethanone] |
